Experimental data: patent publication US20210040062A1, “AZOLE-SUBSTITUTED PYRIDINE COMPOUND” (TAISHO PHARMACEUTICAL CO., LTD., priority 2016, published 2021)

How the values were obtained:
human CYP4F2 = target: T1, human CYP4F2 (Homo sapiens, UniProt P78329); assay: CYP4F2 inhibition test (Test Example 1); assay type: biochemical; details: Escherichia coli membrane fraction expressing human CYP4F2, 2.5 μM luciferine derivative, room temperature 60 minutes, luminescence
T1 construct: host or cells: Escherichia coli (membrane fraction)
T1 sequence (P78329 5-520): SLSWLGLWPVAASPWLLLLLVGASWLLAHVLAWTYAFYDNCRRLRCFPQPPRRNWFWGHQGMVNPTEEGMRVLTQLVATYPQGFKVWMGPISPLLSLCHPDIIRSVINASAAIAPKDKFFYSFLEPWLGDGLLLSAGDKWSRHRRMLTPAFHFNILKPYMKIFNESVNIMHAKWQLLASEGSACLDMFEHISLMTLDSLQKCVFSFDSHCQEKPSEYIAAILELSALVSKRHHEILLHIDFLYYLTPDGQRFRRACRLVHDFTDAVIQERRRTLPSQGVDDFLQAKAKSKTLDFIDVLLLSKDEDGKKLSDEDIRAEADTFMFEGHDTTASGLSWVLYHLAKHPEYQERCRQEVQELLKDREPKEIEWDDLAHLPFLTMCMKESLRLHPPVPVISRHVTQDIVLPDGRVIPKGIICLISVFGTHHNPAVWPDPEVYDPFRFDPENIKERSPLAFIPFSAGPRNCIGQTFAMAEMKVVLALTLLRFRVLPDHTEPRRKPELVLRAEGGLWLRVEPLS
Experimental: (§1) (1) Inhibition Test for Each Compound of the Present Invention Against 20-HETE Producing Enzymes (CYP4F2 and CYP4A11)
(§2) In the CYP4F2 inhibition test, the reaction solution containing each compound [final concentration of 50 mM, KPO4 (pH 7.4), 2.5 μM, luciferine derivative and 1 mM NADPH] was added to an Escherichia coli membrane fraction (100 μg/mL, protein) in which human CYP4F2 had been expressed. In the CYP4A11 inhibition test, the reaction solution containing each compound [final concentration of 100 mM, Tris-HCl (pH 7.5), 60 μM, luciferine derivative, 1.3 mM NADP^+, 3.3 mM Glucose 6-Phosphate, 3.3 mM MgCl2 and 0.4 U/mL Glucose 6-Phosphate dehydrogenase] was added to an Escherichia coli membrane fraction (100 μg/mL, protein) in which human CYP4A11 had been expressed. Following this, the membrane fraction was left to stand at room temperature for 60 minutes to perform an enzymatic reaction. After the reaction, a luciferine detection reagent was added, and the luminescence value was measured using a plate reader.
(§3) A: Luminescence value with addition of compound
(§4) B: Luminescence value without addition of compound and enzyme
(§5) C: Luminescence value without addition of compound

human CYP4A11 = target: T2, human CYP4A11 (Homo sapiens, UniProt Q02928); assay: CYP4A11 inhibition test (Test Example 1); assay type: biochemical; details: Escherichia coli membrane fraction expressing human CYP4A11, 60 μM luciferine derivative, room temperature 60 minutes, luminescence
T2 construct: host or cells: Escherichia coli (membrane fraction)
T2 sequence (Q02928 5-519): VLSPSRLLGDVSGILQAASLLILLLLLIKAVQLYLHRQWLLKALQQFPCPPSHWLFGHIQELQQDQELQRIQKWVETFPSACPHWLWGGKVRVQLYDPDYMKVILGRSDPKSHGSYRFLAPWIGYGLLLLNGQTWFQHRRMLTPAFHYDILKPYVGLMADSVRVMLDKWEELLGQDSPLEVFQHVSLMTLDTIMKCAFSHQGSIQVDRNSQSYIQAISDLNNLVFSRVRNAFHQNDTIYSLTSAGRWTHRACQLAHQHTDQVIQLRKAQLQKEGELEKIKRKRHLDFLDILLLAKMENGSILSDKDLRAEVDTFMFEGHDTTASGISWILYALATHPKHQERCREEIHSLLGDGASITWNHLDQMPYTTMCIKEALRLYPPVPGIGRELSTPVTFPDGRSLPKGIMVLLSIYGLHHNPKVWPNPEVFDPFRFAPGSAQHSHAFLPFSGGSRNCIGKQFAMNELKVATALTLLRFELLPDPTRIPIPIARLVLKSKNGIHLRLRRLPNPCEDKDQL
Experimental: as §1, §2, §3, §4, §5

Structure (SMILES) | IC50 (human CYP4F2) [nM] | IC50 (human CYP4A11) [nM]
NC(=O)COc1ccccc1C(=O)N1CCC[C@@H](COc2ccc(-c3ccn[nH]3)nc2)C1 [Example 3-26] | 9200 | 1200
O=C(c1cc(CO)ccn1)N1CCC[C@@H](COc2ccc(-c3ccn[nH]3)nc2)C1 [Example 3-27] | 700 | 310
O=C(Cn1ccccc1=O)N1CCC[C@@H](COc2ccc(-c3ccn[nH]3)nc2)C1 [Example 3-28] | 3200 | 2400
O=C(COc1ccccc1)N1CCC[C@@H](COc2ccc(-c3ccn[nH]3)nc2)C1 [Example 3-29] | 50 | 79
O=C(CS(=O)(=O)c1ccccc1)N1CCC[C@@H](COc2ccc(-c3ccn[nH]3)nc2)C1 [Example 3-30] | 250 | 110
O=C(CCCOc1ccccc1)N1CCC[C@@H](COc2ccc(-c3ccn[nH]3)nc2)C1 [Example 3-31] | 4.9 | 43
O=C(CC1CCCCC1)N1CCC[C@@H](COc2ccc(-c3ccn[nH]3)nc2)C1 [Example 3-32] | 15 | 460
O=C(CC1CCOCC1)N1CCC[C@@H](COc2ccc(-c3ccn[nH]3)nc2)C1 [Example 3-33] | 220 | 2500
NC(=O)C1(C(=O)N2CCC[C@@H](COc3ccc(-c4ccn[nH]4)nc3)C2)CC1 [Example 3-34] | 45000 | 770
CC(C)(O)CC(=O)N1CCC[C@@H](COc2ccc(-c3ccn[nH]3)nc2)C1 [Example 3-35] | 790 | 1300
O=C(CCS(=O)(=O)C(F)(F)F)N1CCC[C@@H](COc2ccc(-c3ccn[nH]3)nc2)C1 [Example 3-36] | 90 | 710
O=C(CCC1CCCCC1)N1CCC[C@@H](COc2ccc(-c3ccn[nH]3)nc2)C1 [Example 3-37] | 8.3 | 290
O=C(CCN1CCCS1(=O)=O)N1CCC[C@@H](COc2ccc(-c3ccn[nH]3)nc2)C1 [Example 3-38] | 380 | 1800
O=C(CN1CCCOC1=O)N1CCC[C@@H](COc2ccc(-c3ccn[nH]3)nc2)C1 [Example 3-39] | 3500 | 3400
CN(CC(=O)N1CCC[C@@H](COc2ccc(-c3ccn[nH]3)nc2)C1)C(=O)OC(C)(C)C [Example 3-40] | 370 | 930
CCCCNC(=O)NCC(=O)N1CCC[C@@H](COc2ccc(-c3ccn[nH]3)nc2)C1 [Example 3-41] | 180 | 230

Structure (SMILES) | IC50 (human CYP4F2) [nM] | IC50 (human CYP4A11) [nM]
CC(=O)N(C)CCC(=O)N1CCC[C@@H](COc2ccc(-c3ccn[nH]3)nc2)C1 [Example 3-42] | 900 | 1800
CC(=O)NCCCC(=O)N1CCC[C@@H](COc2ccc(-c3ccn[nH]3)nc2)C1 [Example 3-43] | 570 | 720
CC(C)(C)OC(=O)NCCCC(=O)N1CCC[C@@H](COc2ccc(-c3ccn[nH]3)nc2)C1 [Example 3-44] | 18 | 100
O=C(NCCC(=O)N1CCC[C@@H](COc2ccc(-c3ccn[nH]3)nc2)C1)c1ccccc1 [Example 3-45] | 24 | 70
CC(C)(C)OC(=O)N1CC(C(=O)N2CCC[C@@H](COc3ccc(-c4ccn[nH]4)nc3)C2)C1 [Example 3-46] | 23 | 290
CC(C)(C)OC(=O)N1CC[C@H]1C(=O)N1CCC[C@@H](COc2ccc(-c3ccn[nH]3)nc2)C1 [Example 3-47] | 530 | 2100
CC(=O)N1CCC(CCOc2ccc(-c3ccn[nH]3)nc2)CC1 [Example 4-1, 1-[4-(2-{[6-(1H-Pyrazol-5-yl)pyridin-3-yl]oxy}ethyl)piperidin-1-yl]ethan-1-one] | 120 | 550
CC(C)C(=O)N1CCC(CCOc2ccc(-c3ccn[nH]3)nc2)CC1 [Example 4-2] | 50 | 380
O=C(c1ccccc1)N1CCC(CCOc2ccc(-c3ccn[nH]3)nc2)CC1 [Example 4-3] | 210 | 270
CC(CO)(CO)C(=O)N1CCC[C@@H](COc2ccc(-c3ccn[nH]3)nc2)C1 [Example 4-4] | 4500 | 310
O=C(NCCC(=O)N1CCC[C@@H](COc2ccc(-c3ccn[nH]3)nc2)C1)C1CCOCC1 [Example 4-5] | 93 | 370
O=C(CC1CCOCC1)NCCC(=O)N1CCC[C@@H](COc2ccc(-c3ccn[nH]3)nc2)C1 [Example 4-6] | 77 | 340
CC(C)(O)CC(=O)NCCC(=O)N1CCC[C@@H](COc2ccc(-c3ccn[nH]3)nc2)C1 [Example 4-7] | 230 | 380
O=C(NCCC(=O)N1CCC[C@@H](COc2ccc(-c3ccn[nH]3)nc2)C1)C1CCC1 [Example 4-8] | 43 | 91
O=C(NCCC(=O)N1CCC[C@@H](COc2ccc(-c3ccn[nH]3)nc2)C1)C1CC(F)(F)C1 [Example 4-9] | 16 | 97
O=C(NCCC(=O)N1CCC[C@@H](COc2ccc(-c3ccn[nH]3)nc2)C1)C1CCCC1 [Example 4-10] | 20 | 56

More lines, now with the values ahead:

IC50 (human CYP4F2) [nM] | IC50 (human CYP4A11) [nM] | Structure (SMILES)
170 | 1200 | CC(C)NC(=O)N1CCC(COc2ccc(-c3ccn[nH]3)nc2)CC1 [Example 5-1, N-(Propan-2-yl)-4-({[6-(1H-pyrazol-5-yl)pyridin-3-yl]oxy}methyl)piperidin-1-carboxamide]
450 | 510 | CC(C)NC(=O)N1CCC[C@@H](COc2ccc(-c3ccn[nH]3)nc2)C1 [Example 5-2]
190 | 1200 | CC(C)NC(=O)N1CCC[C@H](COc2ccc(-c3ccn[nH]3)nc2)C1 [Example 5-3]
19 | 640 | CN(C)C(=O)N1CCC(COc2ccc(-c3ccn[nH]3)nc2)CC1 [Example 6-1, N,N-Dimethyl-4-({[6-(1H-pyrazol-5-yl)pyridin-3-yl]oxy}methyl)piperidin-1-carboxamide]
570 | 450 | CNC(=O)N1CCC[C@@H](COc2ccc(-c3ccn[nH]3)nc2)C1 [Example 6-3]
110 | 1100 | CNC(=O)N1CCC[C@H](COc2ccc(-c3ccn[nH]3)nc2)C1 [Example 6-4]
720 | 2000 | O=C(N1CCC(COc2ccc(-c3ccn[nH]3)nc2)CC1)N1CCCS1(=O)=O [Example 6-5]
22 | 790 | O=C(N1CCC1)N1CCC(COc2ccc(-c3ccn[nH]3)nc2)CC1 [Example 7-1, (Azetidin-1-yl)[4-({[6-(1H-pyrazol-5-yl)pyridin-3-yl]oxy}methyl)piperidin-1-yl]methanone]
29 | 1100 | O=C(N1CCC(COc2ccc(-c3ccn[nH]3)nc2)CC1)N1CC(F)C1 [Example 7-2]
110 | 1500 | O=C(NC1CC1)N1CCC(COc2ccc(-c3ccn[nH]3)nc2)CC1 [Example 8-1, N-Cyclopropyl-4-({[6-(1H-pyrazol-5-yl)pyridin-3-yl]oxy}methyl)piperidin-1-carboxamide]
90 | 930 | CN(C(=O)N1CCC(COc2ccc(-c3ccn[nH]3)nc2)CC1)C1CC1 [Example 8-2, N-Cyclopropyl-N-methyl-4-({[6-(1H-pyrazol-5-yl)pyridin-3-yl]oxy}methyl)piperidin-1-carboxamide]
74 | 310 | CNC(=O)N1CCC(CCOc2ccc(-c3ccn[nH]3)nc2)CC1 [Example 9-1, N-Methyl-4-(2-{[6-(1H-pyrazol-5-yl)pyridin-3-yl]oxy}ethyl)piperidine-1-carboxamide]
